# Measured values reported in US10815197B2, “N-sulfonyl benzamides as voltage-gated sodium channel inhibitors” (SHANGHAI HAIYAN PHARMACEUTICAL TECHNOLOGY CO., LTD., priority 2016, dated 2020).
# Like-named read-outs stand apart in the source and are kept apart here.
# Columns and labels:
# [1] = Metabolism stability assay, human liver microsomes; assay type: in vitro ADME; conditions: for metabolic stability (in words): from Table 7; for half-life at 1 µM: pH 7.4
# Method: Assay 4: Metabolism Stability Assay 1. […] Buffer A: 1 L solution of 100 mM potassium dihydrogen phosphate containing 1 mM EDTA (Sigma, V900157-100G) was prepared. Buffer B: 1 L solution of 100 mM dipotassium hydrogen phosphate containing 1 mM EDTA was prepared. Buffer C: 700 mL of buffer B was taken out and titrated with buffer A to pH 7.4. 2. […] 2.2 20 μl (20 mg/mL) of liver microsomes (Corning Lot. NO. 4133007) stock solution was added to 513.4 μl of buffer C on wet ice. 0.75 mg/mL liver microsomal solution was obtained. 2.3 1.5 μl of each of the above-mentioned compound to be tested and ketanserin solution was added to 498.5 μl of liver microsomal solution (0.7 5 mg/mL) respectively on wet ice. 1.5 μM mixed solution of compound to be tested and 1.5 μM mixed solution of ketanserin were obtained. 2.4 At the time points 0, 5, 15, 30, 45, and 60 min, 30 μl of the mixed solution of compound to be tested and 30 μl of the mixed solution of ketanserin were dispensed into the reaction plate on wet ice, respectively. 2.5 5 mg reduced coenzyme II (Roche, 10621706001) was weighed and dissolved in 1 mL of buffer C. 6 mM reduced coenzyme II solution was obtained. The reduced coenzyme II solution was dispensed into the reaction plate. 2.6 Imipramine was dissolved to give a 10 mM solution. 10 μl of imipramine solution was added to 100 mL of blank acetonitrile to generate the internal reference. 2.7 At 0 min, 135 μL of iced acetonitrile (Merck (Lot. 1778229518)) containing the internal reference was added to each well and then 15 μL of buffer C was added. 2.8 The reaction plate was placed into a 37° C. water bath incubator for 5 min. In the reaction plate, 15 μL of reduced coenzyme II solution was added to each well to initiate the reaction, and the timing was started. At the time points of 5, 15, 30, 45, and 60 min, 135 μL of iced acetonitrile containing the internal reference was added to each well to terminate the reaction. 2.9 The reaction plate was sealed with an aluminum film, placed on a vibration mixer and shaken at 500 rpm for 5 min. The plate was then centrifuged in a centrifuge at 3750 rp for 15 min. 2.10 The sample was diluted with pure water in accordance with the ratio of 1:1 and detected by LC/MS. Half-life: 0.693/K (the slope by plotting based on the incubation time and logarithm of the concentration value) Clearance ratio: (0.693/half-life)*(1/protein concentration (0.5 mg/mL))*(proportional factor) Wherein, the K value and the proportional factor were calculated by those skilled in the art according to the methods described in the prior art and contained in the instructions of the liver microsome product.
# [2] = target: T1, hNav1.7 (Homo sapiens, UniProt Q15858); assay: Manual patch clamp experiment hNav1.7 (CHO-hNav1.7 stable cell line); assay type: cell-based; conditions: for inhibition at 0.1 µM: read-out: Inhibition of Nav1.7 100 nM(%); for inhibition at 1 µM: read-out: Inhibition of Nav1.7 1000 nM(%)
# T1 construct: host or cells: CHO
# T1 sequence (Q15858 whole entry): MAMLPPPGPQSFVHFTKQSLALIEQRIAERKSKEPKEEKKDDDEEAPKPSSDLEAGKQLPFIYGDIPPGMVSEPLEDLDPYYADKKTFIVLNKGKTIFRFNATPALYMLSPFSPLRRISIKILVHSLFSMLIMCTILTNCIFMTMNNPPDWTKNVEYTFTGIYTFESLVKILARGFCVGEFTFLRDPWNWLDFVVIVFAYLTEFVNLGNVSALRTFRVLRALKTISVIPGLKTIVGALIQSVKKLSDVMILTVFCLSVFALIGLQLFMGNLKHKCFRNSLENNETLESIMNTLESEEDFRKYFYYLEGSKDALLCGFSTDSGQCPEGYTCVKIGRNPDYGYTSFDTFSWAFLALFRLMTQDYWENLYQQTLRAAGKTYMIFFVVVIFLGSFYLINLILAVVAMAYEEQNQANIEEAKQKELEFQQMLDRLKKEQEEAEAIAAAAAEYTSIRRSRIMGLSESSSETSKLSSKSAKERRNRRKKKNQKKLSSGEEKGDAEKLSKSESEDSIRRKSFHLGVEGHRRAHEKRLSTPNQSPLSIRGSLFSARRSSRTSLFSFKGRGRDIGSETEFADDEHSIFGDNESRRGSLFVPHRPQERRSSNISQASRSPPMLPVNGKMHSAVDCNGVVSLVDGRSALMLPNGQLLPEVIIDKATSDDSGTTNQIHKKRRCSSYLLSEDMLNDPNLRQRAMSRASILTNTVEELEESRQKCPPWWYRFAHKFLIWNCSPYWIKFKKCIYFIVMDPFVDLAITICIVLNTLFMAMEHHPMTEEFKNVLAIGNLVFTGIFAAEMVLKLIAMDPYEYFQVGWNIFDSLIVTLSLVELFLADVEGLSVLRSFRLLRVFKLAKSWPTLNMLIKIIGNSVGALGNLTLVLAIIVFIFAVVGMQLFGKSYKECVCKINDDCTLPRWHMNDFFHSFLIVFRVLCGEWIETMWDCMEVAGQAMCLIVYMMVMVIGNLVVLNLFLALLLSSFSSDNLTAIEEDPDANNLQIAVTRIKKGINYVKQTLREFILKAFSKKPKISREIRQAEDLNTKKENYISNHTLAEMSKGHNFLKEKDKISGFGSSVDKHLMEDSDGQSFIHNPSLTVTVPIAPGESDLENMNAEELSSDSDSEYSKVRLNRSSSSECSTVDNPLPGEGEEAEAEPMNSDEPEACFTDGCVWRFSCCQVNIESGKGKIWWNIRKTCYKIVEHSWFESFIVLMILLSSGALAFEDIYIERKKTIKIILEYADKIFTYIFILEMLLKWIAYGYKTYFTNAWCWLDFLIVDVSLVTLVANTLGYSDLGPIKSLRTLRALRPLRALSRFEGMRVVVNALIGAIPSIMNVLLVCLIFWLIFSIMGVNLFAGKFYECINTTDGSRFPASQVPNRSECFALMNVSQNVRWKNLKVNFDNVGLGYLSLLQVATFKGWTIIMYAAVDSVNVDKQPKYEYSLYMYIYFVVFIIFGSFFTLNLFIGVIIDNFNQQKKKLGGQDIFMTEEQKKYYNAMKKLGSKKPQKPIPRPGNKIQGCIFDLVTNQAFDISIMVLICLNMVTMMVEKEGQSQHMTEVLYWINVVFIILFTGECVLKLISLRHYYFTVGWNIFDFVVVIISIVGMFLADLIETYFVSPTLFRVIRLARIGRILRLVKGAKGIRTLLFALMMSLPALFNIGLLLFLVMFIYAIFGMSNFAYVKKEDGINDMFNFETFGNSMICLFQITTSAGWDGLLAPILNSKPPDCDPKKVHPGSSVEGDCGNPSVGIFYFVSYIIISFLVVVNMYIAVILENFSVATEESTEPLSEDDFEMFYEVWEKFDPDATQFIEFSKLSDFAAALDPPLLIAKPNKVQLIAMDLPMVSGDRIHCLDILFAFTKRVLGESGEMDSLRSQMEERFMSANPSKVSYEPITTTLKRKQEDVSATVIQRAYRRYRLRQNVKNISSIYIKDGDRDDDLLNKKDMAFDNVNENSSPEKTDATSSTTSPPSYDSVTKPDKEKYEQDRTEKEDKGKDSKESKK
# Description: Assay 1: Manual Patch Clamp Experiment of Sodium Ion (hNav1.7, hNav1.5 and hNaV1.8) and Calcium Ion (hCav3.2) Channels
# hNav1.7, hNav1.5 Manual Patch Clamp Experiment:
# Patch voltage clamp electrophysiology allows for the direct measurement and quantification of current block of voltage-gated sodium channels (NaV's), and allows the determination of the time and voltage-dependence of block which has been interpreted as differential binding to the resting, open and inactivated states of the sodium channel to reflect the compound's inhibitory or activating effects (Hille, B., Journal of General Physiology (1977), 69: 497-515).
# Representative compounds of the present invention were subject to a manual patch clamp experiment and the purpose of this study was to test the effect of compounds on this ion channel current on a stable cell line transfected with a specific ion channel using a manual patch clamp method. The used stable cell lines CHO-hNav1.7 and HEK-hNav1.5 were from Genionics and WuXi Apptec (Shanghai) respectively.
# Manual patch clamp experimental program is as follows:
# (1) Preparation of solutions and compounds: The whole cell patch clamp technique was used to record hNav1.7 and hNav1.5 currents. In the experiment, the composition of extracellular fluid (mM): HEPES: 5, NaCl: 40, KCl: CaCl2: 1, MgCl2: 1, CdCl2: 0.1, TEA-Cl: 20. The pH was adjusted to 7.3 with NaOH and the osmotic pressure was adjusted to 310-320 mOsm with sucrose, filtered and stored at 4° C. The composition of the intracellular fluid (mM): HEPES: 10, NaCl: 10, CsOH: 5, CsF: 140, EGTA: 1. The pH was adjusted to 7.3 with CsOH and the osmotic pressure was adjusted to 280-290 mOsm with sucrose, filtered and stored at −20° C.
# The positive control and the test compound were firstly dissolved in 100% DMSO (Sigma-Aldrich, D2650), configured as stock solution at a concentration (100 nM, 1000 nM).) The above stock solution was serially diluted with DMSO prior to the experiment, the solution was further diluted with extracellular solution to obtain the test solution of the desired concentration.
# (2) Manual Patch Clamp Experiment: The cell suspension was added to a 35 mm petri dish and placed on an inverted microscope stage. The cells were perfused with an extracellular fluid and the flow rate was 1-2 mL/min after cell adherence. The glass microelectrode was prepared in two steps by a microelectrode puller with an inlet water resistance of 2-5 MΩ. A/D-D/A digital-analog conversion was performed by Digidata 1440 (Molecular Devices) and pCLAMP software (version 10.2, Molecular Devices) for stimulation and signal acquisition; the signal was amplified by patch clamp amplifier (Multiclamp 700B, Molecular Devices), and filtering is 4 KHz.
# Two different voltage stimulation procedures were used in the hNav1.7 and hNav1.5 manual patch clamp experiments.
# One is the inactivation stimulation program, the clamp potential is set at V1/2 of the corresponding channel, i.e., about 50% of the channels are inactivated, then the voltage is applied to −120 mV for 50 ms, then depolarized to −10 mV for 20 ms leading to sodium current, and finally returned to the clamp potential. This stimulation program can also be called channel state-dependent voltage stimulation program.
# The other is the non-inactivation stimulation program, the clamp potential is maintained at −120 mV, voltage stimulation is given to −10 mV for 20 ms leading to sodium current, and finally returned to the clamp potential. That is, all channels have not experienced inactivation status, but activate directly from the resting state under the conditions of the stimulation program.
# The time intervals of these two voltage stimulation programs were 10 s. The inhibitory effect of the compound was calculated by the change of the current before and after dosing, the IC50 value was fitted by the Hill equation.
# [3] = system: SNL-induced cold allodynia in rats; assay: Cold allodynia in SNL (spinal nerve ligation) rats; assay type: in vivo, rat
# Description: Assay 3: Cold Allodynia in SNL
# The experimental animals were male Sprague-Dawley rats, weighing 140-150 g at the beginning of the experiment. The animals were purchased from Slack company, and food and water were supplied ad lib after purchase. Rats were group-housed, four rats/cage, and individually identified by marking on the tail.
# Test Compound and Grouping:
# Vehicle: 5% dimethylacetamide(Sinopharm Technology), 5% solutol (Sigma) and 90% saline
# Positive control: Pregabalin;
# Test compound: compound Z-164;
# The positive control and solvent composition of the test compound are 5% dimethylacetamide, 5% solutol and 90% saline.
# 30 mg/kg Compound Z-164:1.23 mL of dimethylacetamide was added to 148.11 mg of compound Z-164, stirred well until fully dissolved, and then 1.23 mL solutol was added and mixed well. Final volume was made up with 90% saline to 21.44 mL and mixed well before oral administration.
# 30 mg/kg Pregabalin: 1.08 mL of dimethylacetamide was added to 129.48 mg of Pregabalin, stirred well until fully dissolved, and then 1.08 mL solutol was added and mixed well. Final volume was made up with 90% saline to 21.58 mL and mixed well before oral administration.
# 1.1. Spinal Nerve Ligation (SNL) model • Surgical procedures are performed aseptically. • The surgical instruments (scissors, tweezers, scalpels, surgical cotton, sutures, retractor) are sterilized prior to surgery. • Animals were anesthetized with pentobarbital (50 mg/kg, i.p.). A toe pinch was used to ensure that the animals were fully anesthetized prior to surgery. Put ophthalmic ointment in the animal's eyes to prevent the corneas from drying out. • The fur on the surgical area of animal's lower body was shaved, and the skin of the surgical area was swabbed with 3 rounds of Betadine and 70% ethanol. The skin was allowed to dry before surgery. • A longitudinal incision will be made by scalpel at the lower lumbar and sacral levels, exposing the paraspinal muscles on the left side. The retractor was used to separate the muscles and tissues to expose the vertebra. • The left L5 and L6 spinal nerves will be isolated and tightly ligated with 6-0 silk thread. • The wound was closed with sutures. • The surgical instruments were cleaned, and sterilized by using a glass bead sterilizer. • Animals were placed on the electric blanket after surgery. Inject 5 ml sterile saline to prevent dehydration. The animals were returned to their home cage after fully awake (walking around).
# 1.2. Baseline Test of Cold Allodynic and Grouping
# The baseline of cold allodynic was measured in rats two days before dosing. Use a pipette to apply 100 μl of acetone to the animal's lateral hind paw skin and the time of slapping, flinching, lifting, licking of the affected paw were recorded for one minute. Acetone was applied twice in total and the two applications were 10 minutes apart. The sum of the two times was recorded as cold allodynic time in rats. The rats were grouped randomized according to the results of baseline test of cold allodynic the day before dosing.
# 1.3. Cold Allodynic Testing
# A pipette was used to apply 100 μl of acetone to the animal's lateral hind paw skin two hours after dosing and the time of slapping, flinching, lifting, licking of the affected paw were recorded for one minute. Acetone was applied twice and the two applications were 10 minutes apart. The sum of the two times was recorded as cold allodynic time in rats.
# Oral administration was performed two hours before cold allodynic testing.
# 1.5. Data Collection and Analysis
# Data were collected with Excel and analyzed with Prism.
# [4] = 30 mg/kg p.o., two hours after dosing
Structure (SMILES),Clearance [1],half-life at 1 µM [1],inhibition at 0.1 µM ([2]; compound at 100 nM),inhibition at 1 µM ([2]; compound at 1000 nM),other results
"CS(=O)(=O)NC(=O)c1cc(Cl)c(CN2CCN(c3ccc(C4CC4)c(Cl)c3)CC2)cc1F [Compound C12, reference compound]",78.28 mL/min/kg,0.37 h,,,metabolic stability (in words) [1]: significantly reduced
"Cc1cc(N2CCN(Cc3cc(F)c(C(=O)NS(C)(=O)=O)cc3Cl)CC2)ccc1Cl [Compound C13, reference compound]",138.91 mL/min/kg,0.208 h,,,metabolic stability (in words) [1]: significantly reduced
"O=C(NS(=O)(=O)C1CC1)c1cc(Cl)c(OC[C@H]2CCCN2c2ccc(C(F)(F)F)cc2)cc1F [Compound Z-80, (R)-5-chloro-N-(cyclopropylsulfonyl)-2-fluoro-4-((1-(4-(trifluoromethyl)phenyl)pyrrolidine-2-yl)methoxy)benzamide]",36.37 mL/min/kg,0.796 h,90.5%,96.8%,
"O=C(NS(=O)(=O)C1CC1)c1cc(Cl)c(CN2CCN(c3ccc(Cl)c(Cl)c3)CC2)cc1F [Compound Z-89, 5-chloro-N-(cyclopropylsulfonyl)-4-((4-(3,4-dichlorophenyl)piperazin-1-yl)methyl)-2-fluorobenzamide]",6.49 mL/min/kg,4.46 h,,,inhibition at 0.1 µM [2]: 94.8%; inhibition at 1 µM [2]: 99.7%
O=C(NS(=O)(=O)C1CC1)c1cc(Cl)c(CN2CCN(c3ccc(OC(F)(F)F)c(Cl)c3)CC2)cc1F [Compound Z-92],0.07 mL/min/kg,420 h,94.5%,97.3%,
"O=C(NS(=O)(=O)C1CC1)c1cc(Cl)c(OC2CCN(c3ccc(Cl)c(Cl)c3)CC2)cc1F [Compound Z-117, 5-chloro-N-(cyclopropylsulfonyl)-4-((1-(3,4-dichlorophenyl)piperidin-4-yl)oxy)-2-fluorobenzamide]",5.41 mL/min/kg,5.36 h,89.3%,96.1%,
"O=C(NS(=O)(=O)C1CC1)c1cc(Cl)c(OC[C@H]2CCCN2c2ccc(C(F)(F)F)nc2)cc1F [Compound Z-119, (R)-5-chloro-N-(cyclopropylsulfonyl)-2-fluoro-4-((1-(6-(trifluoromethyl)pyridin-3-yl)pyrrolidin-2-yl)methoxy) benzamide]",22.57 mL/min/kg,1.28 h,,,
O=C(NS(=O)(=O)C1CC1)c1cc(Cl)c(CN2CCN(c3ccc(OC(F)(F)F)cn3)CC2)cc1F [Compound Z-159],3.69 mL/min/kg,7.84 h,90.6%,97.3%,
Cc1cc(C(=O)NS(=O)(=O)C2CC2)c(F)cc1OC[C@H]1CCCN1c1ccc(C(F)(F)F)cn1 [Compound Z-195],20.86 mL/min/kg,1.39 h,76.7%,92.7%,
"CC(C)C[C@H](CN)CC(=O)O [Positive control, Pregabalin, reference compound]",,,,,"Anti-allodynia Effect (mean, %) [3, 4]: 74.9%; Response duration (mean, s) the next day (Baseline) [3, 4]: 13.005 s; inhibition of SNL-induced cold allodynia (in words) ([3]; 30 mg/kg, 2 hr post oral administration): inhibition of SNL-induced cold allodynia; Response duration (mean, s) the first day (Baseline) ([3]; acetone cold allodynia, baseline before dosing): 36.847 s"
